Measured values: US20240343658A1, “MICRONUTRIENT COMPOSITIONS AND SYSTEMS AND METHODS OF USING SAME” (Winfield Solutions, LLC, priority 2016, published 2024)

Assay: compatibility with pesticides, modified ASTM E1518-05 (2012) tank mixture test
Type: physicochemical
Details: admixture with the zinc-containing adjuvant, after 72 hours
Method: The zinc-containing adjuvant compositions of the present disclosure were tested for compatibility with pesticides using a modified approach from ASTM E1518-05 (2012), Standard Practice for Evaluation of Physical Compatibility of Pesticides in Aqueous Tank Mixtures by the Dynamic Shaker Method, ASTM International, West Conshohocken, P A, 2012. The pesticides tested included: glyphosate including in its various forms including Roundup®) PowerMax®, Durango®, Cornerstone® 5 plus, Touchdown Total®, Enlist Duo™ (containing glyphosate and 2,4-D) and MON 76382; 2,4-D; Sterling® Blue; Basagran®; Enginia™.
Materials and Methods: The apparatuses used in compatibility testing included: 1. a graduated cylinder, 120 mL; 2. transfer pipets; 3. balance, +0.01 g; 4. a sieve, U.S. standard, 50 mesh (300 μm), 3 inches in diameter; and 5. a flashlight. […] Synthetic water was made according to CIPAC handbook F section MT18.
The final disposition of the compatibility test was on or around 100 mL, and the ratios needed to bring an application of 10 gallons per acre to 100 mL per acre were calculated. 70 percent of the water needed for the compatibility test was added to the cylinder at room temperature. The remaining components were added for the jar test according to WALES and DALES unless otherwise specified by the product label. Applications rates were used from the product label. […]

In the case of `O=C(O)COc1ccc(Cl)cc1Cl` [2,4-D, 2,4-Dichlorophenoxyacetic acid], the compatibility observation was “same results as the 24 hour testing”.
